Measurements published in patent US12398154B2, “Azaquinazoline pan-KRas inhibitors” (Mirati Therapeutics, Inc., priority 2020, dated 2025).

Assays:
Assay in all cases: biochemical
KRas G12R = KRas G12R (Homo sapiens, UniProt P01116, G12R);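 further: TR-FRET displacement assay of compound binding to KRas, read after one hour at room temperature, potency from a four-parameter fit of percent-of-control values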
Procedure: (§1) The ability of a compound to bind to KRas was measured using a TR-FRET displacement assay. […] After a 60-minute incubation at room temperature, the reaction was measured using a BMG LABTECH CLARIO star Plus via TR-FRET. […] The POC values were fit to a 4-parameter IC50 equation and the IC50 value reported.

KRas G12D = KRas G12D (Homo sapiens, UniProt P01116, G12D);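 further: TR-FRET displacement binding assay on KRas, read after a one-hour incubation at room temperature, IC50 fitted from percent-of-control values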
KRas G12D, sequence (P01116 1-169 isoform P01116-2 G12D): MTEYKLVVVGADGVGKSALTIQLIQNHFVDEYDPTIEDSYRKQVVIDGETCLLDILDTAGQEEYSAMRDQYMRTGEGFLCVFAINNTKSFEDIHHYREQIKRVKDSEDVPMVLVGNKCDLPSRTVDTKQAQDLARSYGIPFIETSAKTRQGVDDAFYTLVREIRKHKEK
Procedure: as §1

KRas G12V = KRas G12V (Homo sapiens, UniProt P01116, G12V);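 further: KRas binding measured by TR-FRET displacement at room temperature, IC50 fitted from percent of control values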
KRas G12V, sequence (P01116 1-169 isoform P01116-2 G12V): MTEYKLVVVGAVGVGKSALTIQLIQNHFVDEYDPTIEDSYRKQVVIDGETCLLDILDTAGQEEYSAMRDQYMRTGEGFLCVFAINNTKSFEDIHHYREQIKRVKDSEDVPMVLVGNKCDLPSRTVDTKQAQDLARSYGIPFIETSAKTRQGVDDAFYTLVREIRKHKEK
Procedure: as §1

KRas G12R, sequence (P01116 1-169 isoform P01116-2 G12R): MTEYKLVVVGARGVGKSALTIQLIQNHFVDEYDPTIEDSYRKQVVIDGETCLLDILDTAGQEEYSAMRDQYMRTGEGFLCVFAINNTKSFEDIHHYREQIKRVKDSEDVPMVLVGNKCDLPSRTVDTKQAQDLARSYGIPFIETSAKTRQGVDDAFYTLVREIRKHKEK

Structure (SMILES)	IC50 (KRas G12R) [µM]	IC50 (KRas G12D) [µM]	IC50 (KRas G12V) [µM]
CC1(O)CCCN(c2nc(OCC34CCCN3CCC4)nc3c(F)c(-c4cccc5cccc(Cl)c45)ncc23)C1 (centres unmarked) [Example 1, 1-(7-(8-chloronaphthalen-1-yl)-8-fluoro-2-((hexahydro-1H-pyrrolizin-7a-yl)methoxy)pyrido[4,3-d]pyrimidin-4-yl)-3-methylpiperidin-3-ol]	0.866	0.33	0.565
O=C1CC2(CCCN(c3nc(OCC45CCCN4CCC5)nc4c(F)c(-c5cccc6cccc(Cl)c56)ncc34)C2)CN1 (centres unmarked) [Example 2, 7-(7-(8-chloronaphthalen-1-yl)-8-fluoro-2-((tetrahydro-1H-pyrrolizin-7a(5H)-yl)methoxy)pyrido[4,3-d]pyrimidin-4-yl)-2,7-diazaspiro[4.5]decan-3-one]	2.18	0.632	1.01
CCc1c(F)ccc2cc(O)cc(-c3ncc4c(N5CCC[C@](C)(O)C5)nc(OC[C@@H]5C[C@@H](OC(=O)NC)CN5C)nc4c3F)c12 [Example 9, [(3R,5S)-5-[[7-(8-ethyl-7-fluoro-3-hydroxy-1-naphthyl)-8-fluoro-4-[(3S)-3-hydroxy-3-methyl-1-piperidyl]pyrido[4,3-d]pyrimidin-2-yl]oxymethyl]-1-methyl-pyrrolidin-3-yl] N-methylcarbamate]	0.354	0.456	0.333
CC1(CNc2nc(OCC34CCCN3CCC4)nc3c(F)c(-c4cccc5cccc(F)c45)ncc23)CCC1 [Example 19, 8-fluoro-7-(8-fluoronaphthalen-1-yl)-2-((hexahydro-1H-pyrrolizin-7a-yl)methoxy)-N-((1-methylcyclobutyl)methyl)pyrido[4,3-d]pyrimidin-4-amine]	84.3	≥ 100	64.5
Fc1c(-c2cccc3cccc(F)c23)ncc2c(N3CCCC4CC43)nc(OCC34CCCN3CCC4)nc12 (centres unmarked) [Example 31, 4-(2-azabicyclo[4.1.0]heptan-2-yl)-8-fluoro-7-(8-fluoronaphthalen-1-yl)-2-((hexahydro-1H-pyrrolizin-7a-yl)methoxy)pyrido[4,3-d]pyrimidine]	12.8	–	13.2
Fc1c(-c2cccc3cccc(F)c23)ncc2c(N3CCCC4CCCC43)nc(OCC34CCCN3CCC4)nc12 (centres unmarked) [Example 32, 8-fluoro-7-(8-fluoronaphthalen-1-yl)-2-((hexahydro-1H-pyrrolizin-7a-yl)methoxy)-4-(octahydro-1H-cyclopenta[b]pyridin-1-yl)pyrido[4,3-d]pyrimidine]	86.3	98.6	≥ 100
C[C@H]1C[C@@H](O)CN(c2nc(OCC34CCCN3CCC4)nc3c(F)c(-c4cccc5cccc(F)c45)ncc23)C1 [Example 33, (3R,5S)-1-(8-fluoro-7-(8-fluoronaphthalen-1-yl)-2-((hexahydro-1H-pyrrolizin-7a-yl)methoxy)pyrido[4,3-d]pyrimidin-4-yl)-5-methylpiperidin-3-ol]	10	6.37	6.61
Cc1cc2sc(N)nc2c(-c2ncc3c(N4CCCC(C)(O)C4)nc(OC[C@@]45CCCN4C[C@H](F)C5)nc3c2F)c1C (stereo partly drawn) [Example 39, 1-(7-(2-amino-5,6-dimethylbenzo[d]thiazol-4-yl)-8-fluoro-2-(((2R,7aS)-2-fluorotetrahydro-1H-pyrrolizin-7a(5H)-yl)methoxy)pyrido[4,3-d]pyrimidin-4-yl)-3-methylpiperidin-3-ol]	19.8	12.5	25.5
Cc1cc2sc(N)nc2c(-c2ncc3c(N4CCCC(C)(O)C4)nc(OCC45CCCN4CCC5)nc3c2F)c1C (centres unmarked) [Example 40, 1-(7-(2-amino-5,6-dimethylbenzo[d]thiazol-4-yl)-8-fluoro-2-((hexahydro-1H-pyrrolizin-7a-yl)methoxy)pyrido[4,3-d]pyrimidin-4-yl)-3-methylpiperidin-3-ol]	76.9	55	66.3
OC1CCCCN(c2nc(OCC34CCCN3CCC4)nc3c(F)c(-c4cccc5cccc(F)c45)ncc23)C1 (centres unmarked) [Example 44, 1-(8-fluoro-7-(8-fluoronaphthalen-1-yl)-2-((hexahydro-1H-pyrrolizin-7a-yl)methoxy)pyrido[4,3-d]pyrimidin-4-yl)azepan-3-ol]	6.24	3.23	2.99
O=C1NCC2(CCCN(c3nc(OCC45CCCN4CCC5)nc4c(F)c(-c5cccc6cccc(F)c56)ncc34)C2)N1 (centres unmarked) [Example 45, 7-(8-fluoro-7-(8-fluoronaphthalen-1-yl)-2-((hexahydro-1H-pyrrolizin-7a-yl)methoxy)pyrido[4,3-d]pyrimidin-4-yl)-1,3,7-triazaspiro[4.5]decan-2-one]	0.362	0.089	0.189
OC1CCC2(CCCN(c3nc(OCC45CCCN4CCC5)nc4c(F)c(-c5cccc6cccc(F)c56)ncc34)C2)C1 (centres unmarked) [Example 47, 7-(8-fluoro-7-(8-fluoronaphthalen-1-yl)-2-((hexahydro-1H-pyrrolizin-7a-yl)methoxy)pyrido[4,3-d]pyrimidin-4-yl)-7-azaspiro[4.5]decan-2-ol]	≥ 100	63.4	70.1
CCc1c(F)ccc2cc(O)cc(-c3ncc4c(NCC5(O)CCCCC5)nc(OC[C@@]56CCCN5C[C@H](F)C6)nc4c3F)c12 [Example 52, 5-ethyl-6-fluoro-4-(8-fluoro-2-(((2R,7aS)-2-fluorohexahydro-1H-pyrrolizin-7a-yl)methoxy)-4-(((1-hydroxycyclohexyl)methyl)amino)pyrido[4,3-d]pyrimidin-7-yl)naphthalen-2-ol]	0.039	0.235	0.025
CCc1cccc2cccc(-c3ncc4c(N5CCCC(C)(O)C5)nc(OCC56CCCN5CCC6)nc4c3F)c12 (centres unmarked) [Example 54, 1-(7-(8-ethylnaphthalen-1-yl)-8-fluoro-2-((hexahydro-1H-pyrrolizin-7a-yl)methoxy)pyrido[4,3-d]pyrimidin-4-yl)-3-methylpiperidin-3-ol]	0.528	0.162	0.321
CC1(O)CCCN(c2nc(OCC34CCCN3CCC4)nc3c(F)c(-c4cccc5cccc(C#N)c45)ncc23)C1 (centres unmarked) [Example 56, 8-(8-fluoro-2-((hexahydro-1H-pyrrolizin-7a-yl)methoxy)-4-(3-hydroxy-3-methylpiperidin-1-yl)pyrido[4,3-d]pyrimidin-7-yl)-1-naphthonitrile]	8.34	2.61	3.76
CC1(O)CCCN(c2nc(OCC34CCCN3CCC4)nc3c(F)c(-c4cccc5cccnc45)ncc23)C1 (centres unmarked) [Example 66]	67.8	26.9	44.5

Further lines, results first:

IC50 (KRas G12R) [µM]	IC50 (KRas G12D) [µM]	IC50 (KRas G12V) [µM]	Structure (SMILES)
20.4	8.18	11.7	O=C1CCN(c2nc(OCC34CCCN3CCC4)nc3c(F)c(-c4cccc5cccc(F)c45)ncc23)CCCN1 [Example 3, 5-(8-fluoro-7-(8-fluoronaphthalen-1-yl)-2-((hexahydro-1H-pyrrolizin-7a-yl)methoxy)pyrido[4,3-d]pyrimidin-4-yl)-1,5-diazocan-2-one]
5.41	2.24	2.63	OC1CCCN(c2nc(OCC34CCCN3CCC4)nc3c(F)c(-c4cccc5cccc(F)c45)ncc23)CC1 (centres unmarked) [Example 8, 1-(8-fluoro-7-(8-fluoronaphthalen-1-yl)-2-((hexahydro-1H-pyrrolizin-7a-yl)methoxy)pyrido[4,3-d]pyrimidin-4-yl)azepan-4-ol]
40.1	15.5	20.8	OC1CCN(c2nc(OCC34CCCN3CCC4)nc3c(F)c(-c4cccc5cccc(F)c45)ncc23)CC1 [Example 11, 1-(8-fluoro-7-(8-fluoronaphthalen-1-yl)-2-((hexahydro-1H-pyrrolizin-7a-yl)methoxy)pyrido[4,3-d]pyrimidin-4-yl)piperidin-4-ol]
6.39	6.48	3.41	Fc1c(-c2cccc3cccc(F)c23)ncc2c(N3CCCCCCC3)nc(OCC34CCCN3CCC4)nc12 [Example 41, 4-(azocan-1-yl)-8-fluoro-7-(8-fluoronaphthalen-1-yl)-2-((hexahydro-1H-pyrrolizin-7a-yl)methoxy)pyrido[4,3-d]pyrimidine]
3.09	1.86	1.61	Fc1c(-c2cccc3cccc(F)c23)ncc2c(N3CCCOCC3)nc(OCC34CCCN3CCC4)nc12 [Example 42, 4-(8-fluoro-7-(8-fluoronaphthalen-1-yl)-2-((hexahydro-1H-pyrrolizin-7a-yl)methoxy)pyrido[4,3-d]pyrimidin-4-yl)-1,4-oxazepane]
2.27	3.78	1.3	Fc1c(-c2cccc3cccc(F)c23)ncc2c(N3CCCSCC3)nc(OCC34CCCN3CCC4)nc12 [Example 43, 4-(8-fluoro-7-(8-fluoronaphthalen-1-yl)-2-((hexahydro-1H-pyrrolizin-7a-yl)methoxy)pyrido[4,3-d]pyrimidin-4-yl)-1,4-thiazepane]
18.9	70	27.9	Fc1c(-c2cccc3cccc(F)c23)ncc2c(N3CCOCC3)nc(OCC34CCCN3CCC4)nc12 [Example 49, 4-(8-fluoro-7-(8-fluoronaphthalen-1-yl)-2-((tetrahydro-1H-pyrrolizin-7a(5H)-yl)methoxy)pyrido[4,3-d]pyrimidin-4-yl)morpholine]
22.7	39	22.6	Fc1c(-c2cccc3cccc(F)c23)ncc2c(N3CCSCC3)nc(OCC34CCCN3CCC4)nc12 [Example 50, 4-(8-fluoro-7-(8-fluoronaphthalen-1-yl)-2-((hexahydro-1H-pyrrolizin-7a-yl)methoxy)pyrido[4,3-d]pyrimidin-4-yl)thiomorpholine]
90.2	66.4	49.4	CC1(C)CCCN(c2nc(OCC34CCCN3CCC4)nc3c(F)c(-c4cccc5cccc(F)c45)ncc23)C1 [Example 53, 4-(3,3-dimethylpiperidin-1-yl)-8-fluoro-7-(8-fluoronaphthalen-1-yl)-2-((hexahydro-1H-pyrrolizin-7a-yl)methoxy)pyrido[4,3-d]pyrimidine]
